Measured values as given in paper PMC6127211, “The DnaA AAA+ Domain His136 Residue Directs DnaB Replicative Helicase to the Unwound Region of the Replication Origin, oriC” (Frontiers in Microbiology, 2018).
Where a chain is given by its changes, count along the chain named. Names may count otherwise. Like-named read-outs stand apart in the source and are kept apart here. Each block holds one molecule with its values, some of them ahead of it.

Experiments:
[1] = molecular target: T1, DnaA (Escherichia coli, UniProt P03004, H136A); test: nucleotide binding to purified DnaA (method not described)
T1 construct: full-length wild-type DnaA, overproduced from pKA234 (arabinose-inducible pING derivative) in E. coli KA450 and purified; no tag mentioned
T1 sequence (P03004 1-467 H136A): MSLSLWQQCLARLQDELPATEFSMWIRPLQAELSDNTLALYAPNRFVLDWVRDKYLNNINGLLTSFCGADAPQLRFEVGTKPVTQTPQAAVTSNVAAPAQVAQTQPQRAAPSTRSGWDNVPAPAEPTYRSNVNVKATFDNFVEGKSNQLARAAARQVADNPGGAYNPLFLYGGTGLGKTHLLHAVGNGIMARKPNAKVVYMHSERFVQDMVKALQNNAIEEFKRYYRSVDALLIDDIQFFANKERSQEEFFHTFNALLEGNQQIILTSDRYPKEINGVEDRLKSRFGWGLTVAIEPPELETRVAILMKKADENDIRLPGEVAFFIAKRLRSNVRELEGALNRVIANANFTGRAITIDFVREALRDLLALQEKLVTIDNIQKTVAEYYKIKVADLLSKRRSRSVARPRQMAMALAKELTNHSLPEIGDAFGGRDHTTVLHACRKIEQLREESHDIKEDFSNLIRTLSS
Excerpt: (§1) nucleotide binding to purified DnaA (method not described) on DnaA (wild-type DnaA)

[2] = molecular target: T2, DnaA (wild-type DnaA) (Escherichia coli, UniProt P03004); test: as above
T2 construct: full-length wild-type DnaA, overproduced from pKA234 (arabinose-inducible pING derivative) in E. coli KA450 and purified; no tag mentioned
T2 sequence (P03004 1-467): T1 sequence (P03004 1-467 H136A) with A136H
Excerpt: as §1

[3] = molecular target: T3, DnaB replicative helicase (E. coli, UniProt P0ACB0 1-471); test: pull-down; biotinylated oriC DNA (bio-oriC, 419 bp, 0.1 pmol) incubated on ice for 10 min with 5 pmol ATP-DnaA and different amounts of DnaB in buffer G (20 mM HEPES-KOH pH 7.6, 5 mM magnesium acetate, 1 mM EDTA, 10% glycerol, 0.1% Triton X-100, 4 mM DTT) with 1 mM ATP; recovered with streptavidin-coated beads; washed once with buffer G without KCl; silver staining with quantitative standards; no DnaC; conditions: both partners purified
T3 construct: DnaB replicative helicase, Escherichia coli; No tag is named for the DnaB of the bio-oriC pull-down; The Form I* assay used His-DnaB and the His-DnaB pull-down used His-DnaB K236A; these forms are named in the readout of the functional rows; also called DnaB helicase

Molecule: Nc1ncnc2c1ncn2[C@@H]1O[C@H](COP(=O)(O)OP(=O)(O)OP(=O)(O)O)[C@@H](O)[C@H]1O [ATP]
Kd ([1]; read-out: KD (nM) / ATP): 21 nM | Kd ([2]; read-out: KD (nM) / ATP): 24 nM

Molecule: Nc1ncnc2c1ncn2[C@@H]1O[C@H](COP(=O)(O)OP(=O)(O)O)[C@@H](O)[C@H]1O [ADP]
Kd ([1]; read-out: KD (nM) / ADP): 50 nM | Kd ([2]; read-out: KD (nM) / ADP): 35 nM

Further lines, results first:

binding result [3]: binds
B1: wild-type DnaA (natural protein, E. coli, UniProt P03004 1-467, looked up)
chain: T1 sequence (P03004 1-467 H136A) with A136H
notes: DnaA, chromosomal replication initiator protein, Escherichia coli; wild-type dnaA-coding region of pKA234; also called WT; ATP-DnaA; source: E. coli KA450, overproduced from pKA234, purified

binding result [3]: binds
B2: DnaA H136A (natural protein, E. coli, UniProt P03004 1-467, looked up)
chain: T1 sequence (P03004 1-467 H136A)
notes: DnaA, Escherichia coli, with the substitution H136A in domain III; pH136A is a derivative of pKA234; also called DnaA H136A mutant protein; source: E. coli KA450, overproduced from pH136A, purified
